In brackets after ≈: the same amount, converted by molar mass.
Legend:
Assay type in all cases: functional
Staphylococcus aureus [1] = experiment: Antibacterial activity against Staphylococcus aureus assessed as bacterial growth inhibtion incubated for 18 hrs by resazurin dye based microdilution assay
Staphylococcus aureus [2] = experiment: Antibacterial activity against Methicillin-sensitive Staphylococcus aureus ATCC 25923 assessed as bacterial growth inhibtion incubated for 18 hrs by resazurin dye based microdilution assay
Staphylococcus aureus [3] = experiment: Antibacterial activity against Methicillin-resistant Staphylococcus aureus ATCC 43300 assessed as bacterial growth inhibtion incubated for 18 hrs by resazurin dye based microdilution assay
Staphylococcus aureus [4] = experiment: Potency index, ratio of eucalrobusone-F MIC to test compound MIC for antibacterial activity against Staphylococcus aureus

SMILES | MIC (Staphylococcus aureus [1]) | MIC (Staphylococcus aureus [2]) | MIC (Staphylococcus aureus [3]) | Ratio (Staphylococcus aureus [4])
CC(C)CC(c1c(O)c(C=O)c(O)c(C=O)c1O)C1(C)CCC2C1C1C(CCC2(C)O)C1(C)C (configuration not stated) | 3.3 µM (≈ 1.56 µg/mL) | – | – | –
CC(C)C[C@@H](c1c(O)c(C=O)c(O)c(C=O)c1O)[C@@]1(C)CC[C@@H]2[C@@H]1[C@H]1[C@@H](CC[C@@]2(C)O)C1(C)C [MACROCARPAL A] | 3.3 µM (≈ 1.56 µg/mL) | – | – | –
CC(C)CC(=O)c1c(O)c(C=O)c(O)c2c1O[C@H]1[C@H]3[C@@H](CC[C@]4(C)Oc5c(c(O)c(C=O)c(O)c5C(=O)CC(C)C)C[C@H]4CC[C@]1(C)C2)C3(C)C | – | > 45.4 µM | > 45.4 µM | –
CC(C)CC(c1c(O)c(C=O)c(O)c(C=O)c1O)C1(C)/C=C2/CCC2C(C(C)(C)O)CCC1C (configuration not stated) | 1.7 µM (≈ 0.803 µg/mL) | – | – | –
C=C1CCC2C(C3C1CCC3(C)C(CC(C)C)c1c(O)c(C=O)c(O)c(C=O)c1O)C2(C)C (configuration not stated) | 6.9 µM (≈ 3.14 µg/mL) | – | – | –
C=C(C)[C@@H]1C=C2[C@@H](C)CC[C@@H](Cc3c(O)c(C=O)c(O)c(C(=O)CCC)c3O)[C@]2(C)CC1 | 3.5 µM (≈ 1.54 µg/mL) | – | – | –
C=C1CC[C@@H]2[C@H]([C@H]3[C@H]1CC[C@]3(C)Cc1c(O)c(C=O)c(O)c(C(=O)CCC)c1O)C2(C)C | 7.1 µM (≈ 3.13 µg/mL) | – | – | –
C=C(C)[C@@H]1CC[C@@]2(C)[C@H](Cc3c(O)c(C=O)c(O)c(C(=O)CC(C)C)c3O)CC[C@@](C)(O)[C@@H]2C1 | 19.9 µM (≈ 9.41 µg/mL) | – | – | –
CC(C)CC(=O)c1c(O)c(C=O)c(O)c(C[C@H]2CC(C(C)C)=C[C@H]3Oc4c(C=O)c(O)c(C(=O)CC(C)C)c(O)c4C[C@@]23C)c1O | 6.3 µM (≈ 4.01 µg/mL) | 6.3 µM (≈ 4.01 µg/mL) | 6.3 µM (≈ 4.01 µg/mL) | ~2
CC(C)C[C@H]1c2c(O)c(C=O)c(O)c(C=O)c2O[C@]2(C)C=CC(=O)C[C@@H]12 | – | > 89.4 µM | > 89.4 µM | –
C=C(C)[C@@H]1C=C2[C@@H](C)CC[C@@H](Cc3c(O)c(C=O)c(O)c(C(=O)CC(C)C)c3O)[C@]2(C)CC1 | 4.7 µM (≈ 2.14 µg/mL) | – | – | –
CC(C)CC(=O)c1c(O)c(C=O)c(O)c(C[C@H]2CC(C(C)C)=C[C@H]3Oc4c(c(O)c(C=O)c(O)c4C(=O)CC(C)C)C[C@@]23C)c1O | 12.6 µM (≈ 8.02 µg/mL) | 12.6 µM (≈ 8.02 µg/mL) | 12.6 µM (≈ 8.02 µg/mL) | –
CC(C)CC(c1c(O)c(C=O)c(O)c(C=O)c1O)C1(C)CCC2C1=CC(C(C)(C)O)CCC2C (configuration not stated) | 3.3 µM (≈ 1.56 µg/mL) | – | – | –
CC(C)CC(c1c(O)c(C=O)c(O)c(C=O)c1O)C1(C)C=C2CCC1C(C(C)(C)O)CCC2C (configuration not stated) | 3.4 µM (≈ 1.61 µg/mL) | – | – | –
CO[C@H]1/C=C/O[C@@]2(C)Oc3c(C)c(O)c4c(O)c(c(/C=N/N5CCN(C)CC5)c(O)c4c3C2=O)NC(=O)/C(C)=C\C=C\[C@H](C)[C@H](O)[C@@H](C)[C@@H](O)[C@@H](C)[C@H](OC(C)=O)[C@@H]1C [RIFAMPIN] | – | 0.16 µM (≈ 0.132 µg/mL) | 0.16 µM (≈ 0.132 µg/mL) | –
CC(C)CC(=O)c1c(O)c(C=O)c2c(c1O)C[C@@H]1CC(=O)CC[C@]1(C)O2 | – | > 899 µM | > 899 µM | –
CC(=O)CC[C@@H]1[C@H]([C@@H]2C[C@@](C)(C(CC(C)C)c3c(O)c(C=O)c(O)c(C=O)c3O)CC2=O)C1(C)C (some centres not stated) | 16.5 µM (≈ 8.03 µg/mL) | – | – | –
CC(C)C[C@@H](c1c(O)c(C=O)c(O)c(C=O)c1O)C1CC[C@@](C)(O)[C@@H]2C[C@H](C(C)(C)O)CC[C@@]12C (some centres not stated) | 16.8 µM (≈ 8.24 µg/mL) | – | – | –
CC(C)CC(=O)c1c(O)c(C=O)c(O)c2c1O[C@]1(C)[C@H](C2)C[C@@]2(C(C)C)C[C@H]21 | – | > 82.9 µM | > 82.9 µM | –
CC(C)CC(=O)c1c(O)c(C=O)c(O)c(C[C@@]2(C)CC[C@@H]3[C@@H]2[C@H]2[C@@H](CC[C@@]3(C)O)C2(C)C)c1O [EUCALYPTIN A] | 7.4 µM (≈ 3.5 µg/mL) | – | – | –
Cc1c(O)c(C=O)c(O)c([C@H]2Oc3c(C=O)c(O)c(C(=O)CC(C)C)c(O)c3C[C@@H]2C(C)C)c1O | – | > 65.8 µM | > 65.8 µM | –
